Data from patent US20180222836A1, “Process for the Preparation of Pharmaceutical Grade Ferric Citrate” (Lupin Limited, priority 2015, published 2018).

Assay: BET active specific surface area (U.S. Pharmacopeia General Chapter <846>)
Assay type: physicochemical
Conditions: pharmaceutical grade ferric citrate, dried powder from one-pot process
Description: According to the present invention, the pharmaceutical grade ferric citrate having BET surface area in the range of […]. the method of analysis for BET surface are of the ferric citrate is performed as per U.S. Pharmacopeia General Chapter <846>.

Substance	BET Active Specific Surface Area
ferric citrate [EXAMPLE-1]	6.51 m^2/gm
ferric citrate [EXAMPLE-2]	6.47 m^2/gm
